In patent US20250144067A1, “PERSONALIZED STARVATION THERAPY FOR CANCER” (Faeth Therapeutics, Inc., priority 2021, published 2025):
Counter-ions that a name gives are not always drawn. Like-named read-outs stand apart in the source and are kept apart here.

How the values were obtained:
[1] = system: NCI-H292 lung cancer cells; experiment: FDA drug screening, complete media vs cholesterol-free media without statin (TABLE 1); type: cell-based, human
[2] = system: NCI-H292 lung cancer cells; experiment: FDA drug screening, complete media vs cholesterol-free media with simvastatin (TABLE 2); type: cell-based, human
[3] = NCI-H292 cells, cholesterol-free media without statin, FDA drug library screen
[4] = NCI-H292 cells, complete media, FDA drug library screen
[5] = complete vs cholesterol-free media, >0 enhanced anti-cancer activity, about 0 neutral, <0 antagonist
[6] = NCI-H292 cells, cholesterol-free media with simvastatin 0.04 μM, FDA drug library screen (TABLE 2)
[7] = NCI-H292 cells, complete media, FDA drug library screen (TABLE 2)
[8] = complete media minus cholesterol-free media + simvastatin (0.04 μM), >0 enhanced anti-cancer activity, about 0 neutral, <0 antagonist
[9] = Complete minus Cholesterol-free, […]
[10] = NCI-H292 cells, cholesterol-free media without statin
[11] = complete media minus cholesterol-free media + simvastatin, […]
[12] = complete vs cholesterol-free media, greater than 0 enhanced anti-cancer activity, about 0 neutral, below 0 antagonists
[13] = NCI-H292 cells, FDA drug library screen, cholesterol-free media with simvastatin 0.04 μM
[14] = NCI-H292 cells, FDA drug library screen, complete media
[15] = complete media minus cholesterol-free media + simvastatin, >0 enhanced anti-cancer activity, about 0 neutral, <0 antagonist
[16] = Complete minus Cholesterol-free, >0 enhanced anti-cancer activity, about 0 neutral, <0 antagonist
[17] = NCI-H292 cells, cholesterol-free media with simvastatin 0.04 μM, cell growth value in FDA drug screen
[18] = NCI-H292 cells, complete media, cell growth value in FDA drug screen
[19] = NCI-H292 cells, FDA library drug in cholesterol-free media with simvastatin 0.04 μM
[20] = NCI-H292 cells, FDA library drug in complete media
[21] = complete media vs cholesterol-free media + simvastatin (0.04 μM), […]
[22] = NCI-H292 cells, drug in cholesterol-free media with simvastatin 0.04 μM
[23] = NCI-H292 cells, drug in complete media
[24] = complete media vs cholesterol-free media + simvastatin (0.04 μM), >0 enhanced anti-cancer activity, about 0 neutral, <0 antagonist
[25] = NCI-H292 cells, FDA drug library screen, cholesterol-free media without statin
[26] = Complete minus Cholesterol-free, greater than 0 enhanced anti-cancer activity, about 0 neutral, below 0 antagonists
[27] = NCI-H292 cells in cholesterol-free media without statin
[28] = NCI-H292 cells in complete media
[29] = complete vs cholesterol-free media, […]
[30] = complete media minus cholesterol-free media + simvastatin (0.04 μM), […]

CN1CCc2c(c3ccccc3n2Cc2ccccc2)C1 [Mebhydrolin (napadisylate)]
Cholesterol-free [1, 3]: 1.008 | Complete [1, 4]: 1.238 | Difference [1, 5]: 0.23 | Cholesterol-free media + simvastatin (0.04 μM) [2, 6]: 0.9255 | Complete Media [2, 7]: 0.929 | Difference [2, 8]: 0.00

CC(C)[C@H](N)C(=O)O [L-Valine]
Difference [1, 9]: −0.26 | Cholesterol-free [1, 10]: 1.382 | Complete ([1]; NCI-H292 cells, complete media): 1.127 | Cholesterol-free media + simvastatin (0.04 μM) ([2]; NCI-H292 cells, cholesterol-free media with simvastatin 0.04 μM, […]): 0.8399 | Complete Media ([2]; NCI-H292 cells, complete media, […]): 0.8676 | Difference [2, 11]: 0.03

C[N+]1(C)[C@@H]2CC(OC(=O)C(O)(c3cccs3)c3cccs3)C[C@H]1[C@@H]1O[C@@H]12.[Br-] (some centres unmarked) [Tiotropium (Bromide)]
Cholesterol-free [1]: 1.101 | Complete [1]: 0.8685 | Difference [1]: −0.23 | Cholesterol-free media + simvastatin (0.04 μM) [2]: 2.468 | Complete Media [2]: 1.196 | Difference [2]: −1.27

NCCC[C@H](N)C(=O)O [L-Ornithine]
Cholesterol-free [1, 10]: 1.429 | Complete ([1]; NCI-H292 cells, complete media): 1.042 | Difference [1, 12]: −0.39 | Cholesterol-free media + simvastatin (0.04 μM) [2, 13]: 0.9484 | Complete Media [2, 14]: 1.47 | Difference [2, 15]: 0.52

CCOC(=O)OC(C)OC1=C(C(=O)Nc2ccccn2)N(C)S(=O)(=O)c2ccccc21 (centres unmarked) [Ampiroxicam]
Difference [1, 16]: −0.03 | Cholesterol-free [1, 3]: 0.9909 | Complete [1, 4]: 0.9596 | Cholesterol-free media + simvastatin (0.04 μM) [2, 17]: 1.311 | Complete Media [2, 18]: 1.382 | Difference [2, 15]: 0.07

CC[N+](C)(CC)CCOC(=O)C(O)(c1ccccc1)c1ccccc1 [Methylbenactyzium Bromide]
Difference [1, 9]: 0.02 | Cholesterol-free [1, 3]: 0.9201 | Complete [1, 4]: 0.945 | Cholesterol-free media + simvastatin (0.04 μM) [2, 19]: 1.651 | Complete Media [2, 20]: 1.081 | Difference [2, 21]: −0.57

C[C@H]1C[C@H]2[C@@H]3CCC4=CC(=O)C=C[C@]4(C)[C@H]3C(=O)C[C@]2(C)[C@@]1(O)C(=O)CO [Meprednisone]
Cholesterol-free [1, 3]: 0.7649 | Complete [1, 4]: 1.522 | Difference [1, 5]: 0.76 | Cholesterol-free media + simvastatin (0.04 μM) [2, 22]: 1.224 | Complete Media [2, 23]: 0.9766 | Difference [2, 24]: −0.25

C[C@H](CCC(=O)NCCS(=O)(=O)O)[C@H]1CC[C@H]2[C@@H]3[C@H](O)C[C@@H]4C[C@H](O)CC[C@]4(C)[C@H]3CC[C@]12C [Taurochenodeoxycholic acid]
Difference [1, 9]: −0.12 | Cholesterol-free [1, 25]: 0.9676 | Complete [1, 14]: 0.8469 | Cholesterol-free media + simvastatin (0.04 μM) [2, 22]: 1.179 | Complete Media [2, 23]: 1.003 | Difference [2, 21]: −0.18

Cc1cc(NC(=O)C2=C(O)c3ccccc3S(=O)(=O)N2C)no1 [Isoxicam]
Difference [1, 26]: −0.71 | Cholesterol-free [1, 27]: 1.72 | Complete [1, 28]: 1.015 | Cholesterol-free media + simvastatin (0.04 μM) [2, 22]: 1.282 | Complete Media [2, 23]: 1.064 | Difference [2, 24]: −0.22

Phillyrin
Difference [1, 9]: −0.77 | Cholesterol-free [1, 27]: 1.584 | Complete [1, 28]: 0.8182 | Cholesterol-free media + simvastatin (0.04 μM) [2, 13]: 1.405 | Complete Media [2, 14]: 1.262 | Difference [2, 21]: −0.14

CC(C)OC(=O)[C@H](C)N[P@](=O)(OC[C@H]1O[C@@H](n2ccc(=O)[nH]c2=O)[C@](C)(F)[C@@H]1O)Oc1ccccc1 [Sofosbuvir]
Cholesterol-free [1, 10]: 1.138 | Complete ([1]; NCI-H292 cells, complete media): 0.6875 | Difference [1, 29]: −0.45 | Cholesterol-free media + simvastatin (0.04 μM) [2, 6]: 0.9955 | Complete Media [2, 7]: 0.9628 | Difference [2, 30]: −0.03

Amlodipine (maleate)
Cholesterol-free [1]: 1.127 | Complete [1]: 0.9069 | Difference [1]: −0.22 | Cholesterol-free media + simvastatin (0.04 μM) [2]: 1.087 | Complete Media [2]: 0.7885 | Difference [2]: −0.30

CN(C)CCOC(=O)COc1ccc(Cl)cc1 [Meclofenoxate (hydrochloride)]
Difference [1, 9]: −0.28 | Cholesterol-free [1, 10]: 1.499 | Complete ([1]; NCI-H292 cells, complete media): 1.221 | Cholesterol-free media + simvastatin (0.04 μM) [2, 6]: 1.001 | Complete Media [2, 7]: 0.9764 | Difference [2, 30]: −0.02

CC(C)(C)N.CCC[C@H](N[C@@H](C)C(=O)N1[C@H](C(=O)O)C[C@@H]2CCCC[C@@H]21)C(=O)OCC [Perindopril (erbumine)]
Difference [1, 16]: −0.25 | Cholesterol-free [1, 10]: 1.151 | Complete ([1]; NCI-H292 cells, complete media): 0.8989 | Cholesterol-free media + simvastatin (0.04 μM) [2, 13]: 0.9237 | Complete Media [2, 14]: 0.7917 | Difference [2, 24]: −0.13

Loxapine (succinate)
Difference [1, 26]: −0.72 | Cholesterol-free [1, 27]: 1.602 | Complete [1, 28]: 0.8776 | Cholesterol-free media + simvastatin (0.04 μM) [2, 17]: 1.274 | Complete Media [2, 18]: 1.361 | Difference [2, 15]: 0.09

Cn1c(=O)c2[nH]cnc2n(C)c1=O [Choline theophyllinate]
Difference [1, 16]: −0.20 | Cholesterol-free [1, 10]: 1.108 | Complete ([1]; NCI-H292 cells, complete media): 0.9038 | Cholesterol-free media + simvastatin (0.04 μM) [2, 13]: 1.275 | Difference [2, 24]: −0.10

CC(C)[N+]1(C)[C@@H]2CC[C@H]1CC(OC(=O)C(CO)c1ccccc1)C2.[Br-] (some centres unmarked) [Ipratropium (bromide)]
Cholesterol-free [1, 10]: 1.233 | Complete ([1]; NCI-H292 cells, complete media): 0.8969 | Difference [1, 29]: −0.34 | Cholesterol-free media + simvastatin (0.04 μM) [2, 19]: 1.536 | Difference [2, 21]: −0.39

Tandospirone (citrate)
Cholesterol-free [1, 10]: 1.167 | Complete ([1]; NCI-H292 cells, complete media): 0.8565 | Difference [1, 12]: −0.31 | Difference [2, 8]: 0.00

C[C@]12CCC(=O)C=C1C=C[C@@H]1[C@@H]2CC[C@@]2(C)[C@H]1CC[C@@]21CCC(=O)O1 [Canrenone]
Difference [1, 16]: −0.20 | Cholesterol-free [1, 10]: 1.047 | Complete ([1]; NCI-H292 cells, complete media): 0.8458 | Cholesterol-free media + simvastatin (0.04 μM) [2, 13]: 1.098 | Complete Media [2, 14]: 1.452 | Difference [2, 15]: 0.35

CN(C)N(C)C(=O)[C@@]1(Cc2ccccc2)CCCN(C(=O)[C@@H](Cc2c[nH]c3ccccc23)NC(=O)C(C)(C)N)C1 [Anamorelin (hydrochloride)]
Difference [1, 26]: −0.93 | Cholesterol-free [1, 27]: 1.922 | Complete [1, 28]: 0.9877 | Cholesterol-free media + simvastatin (0.04 μM) [2, 6]: 1.088 | Complete Media [2, 7]: 1.064 | Difference [2, 8]: −0.02

COc1cc(N2CCC(N3CCN(C)CC3)CC2)ccc1Nc1ncc(Cl)c(Nc2ccccc2P(C)(C)=O)n1 [Brigatinib]
Cholesterol-free [1, 3]: 0.5531 | Complete [1, 4]: 0.9482 | Difference [1, 5]: 0.40 | Cholesterol-free media + simvastatin (0.04 μM) [2, 22]: 0.8361 | Complete Media [2, 23]: 0.6309 | Difference [2, 24]: −0.21

OC[C@H]1O[C@@H](n2cnc3c2NC=NC[C@H]3O)C[C@@H]1O [Pentostatin]
Cholesterol-free [1]: 1.242 | Complete [1]: 0.8025 | Difference [1]: −0.44 | Cholesterol-free media + simvastatin (0.04 μM) [2]: 1.49 | Complete Media [2]: 1.245 | Difference [2]: −0.25

CO[C@H]1C[C@@H]2CC[C@@H](C)[C@@](O)(O2)C(=O)C(=O)N2CCCC[C@H]2C(=O)O[C@H]([C@H](C)C[C@@H]2CC[C@@H](OCCO)[C@H](OC)C2)CC(=O)[C@H](C)/C=C(\C)[C@@H](O)[C@@H](OC)C(=O)[C@H](C)C[C@H](C)/C=C/C=C/C=C/1C [Everolimus]
Difference [1, 16]: −0.23 | Cholesterol-free [1, 10]: 0.8236 | Complete ([1]; NCI-H292 cells, complete media): 0.5968 | Cholesterol-free media + simvastatin (0.04 μM) [2, 6]: 0.3946 | Complete Media [2, 7]: 0.373 | Difference [2, 8]: −0.02

CCCC(=O)OC[C@@H](OC(=O)CCC)[C@@H](OC(=O)CCC)[C@H](Cn1c2nc(=O)[nH]c(=O)c-2nc2cc(C)c(C)cc21)OC(=O)CCC [Riboflavin Tetrabutyrate]
Difference [1, 9]: 0.07 | Cholesterol-free [1, 3]: 0.7766 | Complete [1, 4]: 0.8432 | Cholesterol-free media + simvastatin (0.04 μM) [2, 13]: 1.163 | Complete Media [2, 14]: 1.747 | Difference [2, 11]: 0.58

COc1ccnc(C[S+]([O-])c2nc3cc(-n4cccc4)ccc3[nH]2)c1C (centres unmarked) [Ilaprazole]
Difference ([1]; Complete minus Cholesterol-free, greater than 0 enhanced anti-cancer activity, about 0 neutral, below 0 antagonist): −0.14 | Cholesterol-free [1, 25]: 1.326 | Complete [1, 14]: 1.19 | Cholesterol-free media + simvastatin (0.04 μM) [2, 19]: 1.567 | Complete Media [2, 20]: 1.084 | Difference [2, 24]: −0.48

O.Sc1ncnc2nc[nH]c12 [6-Mercaptopurine hydrate]
Difference [1, 9]: −0.11 | Cholesterol-free [1, 25]: 0.3886 | Complete [1, 14]: 0.2796 | Cholesterol-free media + simvastatin (0.04 μM) [2, 22]: 0.9123 | Complete Media [2, 23]: 0.7458 | Difference [2, 21]: −0.17

CC[C@@H]1/C=C(\C)C[C@H](C)C[C@H](OC)[C@H]2O[C@@](O)(C(=O)C(=O)N3CCCC[C@H]3C(=O)O[C@H](/C(C)=C/[C@@H]3CC[C@H](Cl)[C@H](OC)C3)[C@H](C)[C@@H](O)CC1=O)[C@H](C)C[C@@H]2OC [Pimecrolimus]
Difference [1, 16]: −0.26 | Cholesterol-free [1, 10]: 1.022 | Complete ([1]; NCI-H292 cells, complete media): 0.7576 | Cholesterol-free media + simvastatin (0.04 μM) [2, 22]: 1.1 | Complete Media [2, 23]: 0.8909 | Difference [2, 24]: −0.21
